Laboratory results taken from the supplement of paper PMC10331698.
± gives the standard deviation of the averaged measurements.

How the values were obtained:
Assay in all cases: level (log10 ratio to DMSO vehicle control); higher = higher biomarker level / cell amount than vehicle control
[1] = compound: C=C(C)C(=O)OCCC(F)(F)C(F)(F)C(F)(F)C(F)(F)C(F)(F)C(F)(F)F [6:2 Fluorotelomer methacrylate]; conditions: in DMSO
Protocol: (§1)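 BioMAP Diversity Plus panel of 12 human primary cell co-culture systems (3C, 4H, LPS, SAg, BT, BF4T, BE3C, CASM3C, HDF3CGF, KF3CT, MyoF, Mphg). Compounds were added 1 h before stimulation and left for 24 h (MyoF 48 h; BT 72 h for soluble read-outs or 6 d for IgG). Biomarkers were read by ELISA, cytotoxicity by SRB, PBMC viability and proliferation by Alamar Blue. Each well value was divided by the mean of 8 DMSO control wells on the same plate and log10 transformed; duplicate blinded samples were tested at 4 concentrations.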

[2] = compound: C=CC(=O)OCC(F)(F)C(F)(F)C(F)(F)COC(=O)C=C [1H,1H,5H,5H-Perfluoro-1,5-pentanediol diacrylate]; conditions: 6700 nM; in DMSO
Protocol: as §1

[3] = compound: FC(F)(F)C(F)(F)C(F)(F)C(F)(F)C(F)(F)C(F)(F)C(F)(F)I [1-Iodopentadecafluoroheptane]; conditions: in DMSO
Protocol: as §1

[4] = compound: FC(F)(F)C(F)(F)C(F)(F)CC1CO1 [1H,1H-Heptafluorobutyl epoxide]; conditions: in DMSO
Protocol: as §1

[5] = compound: NS(=O)(=O)C(F)(F)C(F)(F)C(F)(F)C(F)(F)C(F)(F)C(F)(F)F [Perfluorohexanesulfonamide]; conditions: in DMSO
Protocol: as §1

[6] = compound: O=C(O)C(F)(F)C(F)(F)C(F)(F)C(F)(F)C(F)(F)C(F)(F)C(F)(F)C(F)(F)C(F)(F)C(F)F [11-H-Perfluoroundecanoic acid]; conditions: in DMSO
Protocol: as §1

[7] = compound: O=S(=O)(Cl)C(F)(F)C(F)(F)C(F)(F)C(F)(F)C(F)(F)C(F)(F)C(F)(F)C(F)(F)F [Perfluoro-1-octanesulfonyl chloride]; conditions: in DMSO
Protocol: as §1

[8] = compound: OCC(F)(F)C(F)(F)C(F)(F)CO [Hexafluoroamylene glycol]; conditions: in DMSO
Protocol: as §1

Row | Test System | level (log10) ([1]; 6700 nM) | level (log10) ([1]; 20000 nM) | level (log10) ([1]; 60000 nM) | level (log10) [2] | level (log10) ([3]; 6700 nM) | level (log10) ([3]; 20000 nM) | level (log10) ([4]; 6700 nM) | level (log10) ([4]; 20000 nM) | level (log10) ([4]; 60000 nM) | level (log10) ([5]; 6700 nM) | level (log10) ([5]; 20000 nM) | level (log10) ([5]; 60000 nM) | level (log10) ([6]; 6700 nM) | level (log10) ([6]; 20000 nM) | level (log10) ([7]; 6700 nM) | level (log10) ([7]; 20000 nM) | level (log10) ([7]; 60000 nM) | level (log10) ([8]; 6700 nM) | level (log10) ([8]; 20000 nM) | level (log10) ([8]; 60000 nM)
1 | BF4T:CD90 | -0.004 ± 0.0057 | -0.007 ± 0.0057 | -0.0065 ± 0.0021 | -0.0195 ± 0.018 | 0.001 ± 0.016 | -0.0025 ± 0.0021 | -0.026 ± 0.014 | -0.0175 ± 0.0092 | -0.0125 ± 0.0078 | -0.0055 ± 0.00071 | -0.0085 ± 0.0078 | -0.035 ± 0.0099 | -0.0485 ± 0.028 | -0.0995 ± 0.029 | 0.0005 ± 0.00071 | -0.019 | -0.028 ± 0.038 | -0.012 ± 0.0028 | -0.017 | -0.004 ± 0.011
2 | BT:sIL-2 | 0.0005 ± 0.012 | -0.0195 ± 0.053 | -0.036 ± 0.025 | -0.651 ± 0.08 | -0.113 ± 0.07 | -0.017 ± 0.081 | -0.0245 ± 0.0092 | -0.055 ± 0.15 | 0.022 ± 0.18 | -0.018 ± 0.11 | -0.0415 ± 0.015 | 0.0705 ± 0.00071 | -0.0265 ± 0.013 | -0.008 ± 0.083 | 0.0385 ± 0.047 | 0.104 ± 0.042 | 0.13 ± 0.018 | 0.0335 ± 0.022 | 0.0145 ± 0.054 | 0.0365 ± 0.056
3 | LPS:sPGE2 | 0.0125 ± 0.0078 | 0.027 ± 0.0099 | 0.0025 ± 0.046 | -0.105 ± 0.028 | -0.062 ± 0.013 | -0.103 ± 0.027 | 0.007 ± 0.03 | 0.005 ± 0.05 | 0.0105 ± 0.00071 | 0.088 ± 0.014 | 0.13 ± 0.032 | 0.207 ± 0.046 | 0.018 ± 0.023 | -0.006 ± 0.042 | 0.0585 ± 0.0078 | -0.02 ± 0.016 | -0.272 ± 0.03 | -0.0265 ± 0.022 | -0.0255 ± 0.071 | -0.0325 ± 0.054
4 | BT:sIL-6 | 0.017 ± 0.014 | 0.059 ± 0.017 | -0.004 ± 0.089 | -0.692 ± 0.031 | -0.0825 ± 0.0078 | 0.024 ± 0.044 | 0.002 ± 0.0014 | -0.023 ± 0.042 | -0.0725 ± 0.071 | 0.013 ± 0.09 | -0.0025 ± 0.061 | -0.0455 ± 0.037 | -0.033 ± 0.034 | -0.0465 ± 0.046 | 0.0135 ± 0.016 | 0.043 ± 0.025 | 0.0195 ± 0.033 | 0.0575 ± 0.0078 | 0.015 ± 0.031 | 0.014 ± 0.021
5 | BF4T:MMP-3 | -0.001 ± 0.013 | -0.0215 ± 0.028 | 0.0055 ± 0.005 | 0.056 ± 0.028 | -0.0345 ± 0.039 | -0.0315 ± 0.016 | 0.003 ± 0.0028 | 0.0005 ± 0.0035 | -0.008 ± 0.02 | -0.0185 ± 0.00071 | -0.011 ± 0.0042 | 0.0695 ± 0.061 | 0.0035 ± 0.046 | 0.002 ± 0.028 | -0.0125 ± 0.0021 | 0.0225 ± 0.028 | -0.0595 ± 0.0035 | -0.016 ± 0.037 | -0.0205 ± 0.028 | 0.011 ± 0.042
6 | BF4T:CD54/ICAM-1 | -0.019 ± 0.0042 | -0.0045 ± 0.026 | -0.0195 ± 0.0035 | -0.084 ± 0.011 | 0.004 ± 0.011 | -0.0025 ± 0.013 | -0.027 ± 0.016 | -0.003 ± 0.035 | -0.0245 ± 0.018 | -0.015 ± 0.0014 | -0.0375 ± 0.0064 | -0.0645 ± 0.0078 | -0.0375 ± 0.0021 | -0.104 ± 0.016 | -0.011 ± 0.0085 | -0.023 | -0.084 | -0.0145 ± 0.005 | -0.0045 ± 0.015 | 0.009 ± 0.014
7 | BE3C:EGFR | 0.0045 ± 0.052 | 0.0085 ± 0.043 | 0.0135 ± 0.049 | -0.01 | 0.014 ± 0.0071 | 0.0185 ± 0.026 | -0.0025 ± 0.0064 | -0.0045 ± 0.0064 | -0.018 ± 0.0042 | 0.023 ± 0.0057 | 0.0205 ± 0.033 | 0.014 ± 0.017 | -0.0125 ± 0.021 | -0.12 ± 0.0057 | -0.0135 ± 0.019 | -0.0285 ± 0.00071 | -0.121 ± 0.014 | 0.0035 ± 0.005 | -0.0115 ± 0.0078 | 0.009 ± 0.0071
8 | BF4T:MMP-1 | -0.0015 ± 0.005 | 0.015 ± 0.011 | 0.015 ± 0.013 | 0.031 ± 0.016 | -0.0055 ± 0.018 | 0.0005 ± 0.0035 | 0.014 ± 0.02 | 0.009 ± 0.024 | 0.019 ± 0.048 | 0 ± 0.0014 | -0.012 ± 0.0042 | -0.018 ± 0.0014 | -0.0115 ± 0.013 | 0.0005 ± 0.026 | 0.008 ± 0.016 | 0.025 ± 0.014 | -0.042 ± 0.0071 | -0.0105 ± 0.005 | -0.007 ± 0.0014 | 0 ± 0.0085
9 | BF4T:SRB | 0.002 ± 0.0071 | -0.003 ± 0.0071 | -0.0035 ± 0.012 | -0.005 ± 0.0042 | -0.0085 ± 0.0092 | -0.008 ± 0.0014 | -0.004 ± 0.0057 | 0.0005 ± 0.005 | 0.0025 ± 0.005 | -0.005 ± 0.0042 | -0.012 ± 0.0042 | -0.0345 ± 0.005 | -0.012 ± 0.0014 | -0.103 ± 0.0092 | -0.0015 ± 0.005 | -0.011 ± 0.0014 | -0.251 ± 0.0085 | 0.0025 ± 0.018 | 0.002 ± 0.0085 | 0 ± 0.0057
10 | BE3C:CD87/uPAR | -0.047 ± 0.027 | -0.0335 ± 0.019 | -0.0305 ± 0.028 | 0.0195 ± 0.0064 | 0.001 ± 0.034 | 0.008 ± 0.011 | 0.0105 ± 0.0092 | -0.004 ± 0.024 | -0.004 ± 0.023 | 0.0005 ± 0.0035 | -0.0055 ± 0.018 | -0.13 ± 0.018 | 0.0235 ± 0.026 | -0.264 ± 0.019 | 0.0825 ± 0.025 | 0.0795 ± 0.0064 | -0.276 ± 0.052 | -0.0205 ± 0.011 | -0.016 ± 0.037 | 0.0025 ± 0.022
11 | SAg:PBMC Cytotoxicity | -0.0305 ± 0.057 | 0.0085 ± 0.0021 | 0.015 ± 0.0099 | -0.111 ± 0.0035 | -0.0165 ± 0.028 | 0.0265 ± 0.026 | -0.0095 ± 0.0092 | -0.005 ± 0.013 | 0.0345 ± 0.011 | 0 ± 0.05 | 0.0415 ± 0.021 | 0.121 ± 0.023 | 0.002 ± 0.045 | 0.0035 ± 0.021 | 0.01 ± 0.025 | 0.0045 ± 0.016 | 0.067 ± 0.0085 | 0.0135 ± 0.00071 | 0.008 ± 0.014 | 0.005 ± 0.03
12 | SAg:SRB | 0 ± 0.0057 | -0.003 ± 0.0042 | -0.005 ± 0.0071 | -0.0015 ± 0.012 | -0.007 ± 0.0042 | 0.0025 ± 0.0021 | 0.0065 ± 0.026 | -0.0065 ± 0.0092 | -0.0115 ± 0.011 | -0.003 ± 0.0028 | -0.001 ± 0.0028 | -0.094 ± 0.021 | 0.0155 ± 0.005 | 0.0035 ± 0.011 | -0.001 ± 0.0042 | -0.0045 ± 0.011 | -0.107 ± 0.033 | -0.0015 ± 0.00071 | -0.004 ± 0.0028 | -0.0005 ± 0.019
13 | BE3C:IL-1alpha | 0.0025 ± 0.016 | -0.0125 ± 0.0035 | 0.003 | -0.0415 ± 0.03 | -0.0175 ± 0.005 | -0.0185 ± 0.0021 | 0.024 ± 0.024 | 0.01 ± 0.051 | 0.0265 ± 0.066 | -0.0195 ± 0.00071 | -0.022 ± 0.013 | -0.0885 ± 0.016 | 0.0285 ± 0.016 | -0.42 ± 0.011 | 0.015 ± 0.0042 | 0.0155 ± 0.0092 | -0.523 ± 0.1 | -0.002 ± 0.0085 | 0.002 | 0.0135 ± 0.0092
